Key:
barnyardgrass [1] = experiment: Test C postemergence; type: in vivo, Echinochloa crusgalli; conditions: 10 days
Summary of the method: (§1)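 Test material, in non-phytotoxic solvent with surfactant, was sprayed on the soil directly after seeding (preemergence) or on young plants of 2–10 cm with one to two leaves (postemergence). Greenhouse, 10 days; 0–100 visual control scale.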

green foxtail [2] = experiment: Test C preemergence; type: in vivo, Setaria viridis; conditions: 0 to 100 scale (0 no effect, 100 complete control); for Foxtail, Green plant response rating: preemergence
Summary of the method: as §1

blackgrass [3] = experiment: Test C postemergence; type: in vivo, Alopecurus myosuroides; conditions: 10 days
Summary of the method: as §1

rice = experiment: Test D flooded paddy test; type: in vivo, Oryza sativa; conditions: 250 g ai/ha, applied to paddy water, visual rating after 13 to 14 days, scale 0 to 100 (0 no effect, 100 complete control)
Summary of the method: (§2)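 Seedlings reached the 2-leaf stage, then pots were flooded to 3 cm over the soil surface. Compound was applied into the water, depth was maintained, and plants stayed in the greenhouse 13 to 14 days before visual scoring (0–100) relative to controls.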

barnyardgrass [4] = experiment: Test D flooded paddy test; type: in vivo, Echinochloa crus-galli; conditions: 250 g ai/ha, applied to paddy water, visual rating after 13 to 14 days, scale 0 to 100 (0 no effect, 100 complete control)
Summary of the method: as §2

sedge, umbrella = experiment: Test D flooded paddy test; type: in vivo, Cyperus difformis; conditions: 250 g ai/ha, applied to paddy water, visual rating after 13 to 14 days, scale 0 to 100 (0 no effect, 100 complete control)
Summary of the method: as §2

blackgrass [5] = experiment: Test C preemergence; type: in vivo, Alopecurus myosuroides; conditions: 0 to 100 scale (0 no effect, 100 complete control); for Plant response rating, Blackgrass: Preemergence, 500 g ai/ha, visual rating after 10 days; for Blackgrass plant response rating: Test C, preemergence, 125 g ai/ha
Summary of the method: as §1

ryegrass, Italian [6] = experiment: Test C preemergence; type: in vivo, Lolium multiflorum; conditions: 0 to 100 scale (0 no effect, 100 complete control); for Ryegrass, Italian plant response rating: preemergence
Summary of the method: as §1

oat, wild [7] = experiment: Test C postemergence; type: in vivo, Avena fatua; conditions: 10 days
Summary of the method: as §1

wheat [8] = experiment: Test C preemergence; type: in vivo, Triticum aestivum; conditions: 0 to 100 scale (0 no effect, 100 complete control); for Wheat plant response rating: preemergence
Summary of the method: as §1

horseweed = experiment: Test C postemergence; type: in vivo, Erigeron canadensis; conditions: 10 days
Summary of the method: as §1

ryegrass, Italian [9] = experiment: Test C postemergence; type: in vivo, Lolium multiflorum; conditions: 10 days
Summary of the method: as §1

ragweed [10] = experiment: Test C preemergence; type: in vivo, Ambrosia artemisiifolia; conditions: 0 to 100 scale (0 no effect, 100 complete control); for Ragweed plant response rating: preemergence
Summary of the method: as §1

galium = experiment: Test C postemergence; type: in vivo, Galium aparine; conditions: 10 days
Summary of the method: as §1

corn [11] = experiment: Test C postemergence; type: in vivo, Zea mays; conditions: 10 days
Summary of the method: as §1

oat, wild [12] = experiment: Test C preemergence; type: in vivo, Avena fatua; conditions: 0 to 100 scale (0 no effect, 100 complete control); for Oat, Wild plant response rating: preemergence
Summary of the method: as §1

ducksalad = experiment: Test D flooded paddy test; type: in vivo, Heteranthera limosa; conditions: 250 g ai/ha, applied to paddy water, visual rating after 13 to 14 days, scale 0 to 100 (0 no effect, 100 complete control)
Summary of the method: as §2

barnyardgrass [13] = experiment: Test C preemergence; type: in vivo, Echinochloa crusgalli; conditions: 0 to 100 scale (0 no effect, 100 complete control); for Plant response rating, Barnyardgrass: Preemergence, 500 g ai/ha, visual rating after 10 days; for Barnyardgrass plant response rating: Test C, preemergence, 125 g ai/ha
Summary of the method: as §1

pigweed, palmer [14] = experiment: Test C postemergence; type: in vivo, Amaranthus palmeri; conditions: 10 days
Summary of the method: as §1

green foxtail [15] = experiment: Test C postemergence; type: in vivo, Setaria viridis; conditions: 10 days
Summary of the method: as §1

soybean [16] = experiment: Test C preemergence; type: in vivo, Glycine max; conditions: 0 to 100 scale (0 no effect, 100 complete control); for Soybean plant response rating: preemergence
Summary of the method: as §1

soybean [17] = experiment: Test C postemergence; type: in vivo, Glycine max; conditions: 10 days
Summary of the method: as §1

pigweed, palmer [18] = experiment: Test C preemergence; type: in vivo, Amaranthus palmeri; conditions: 0 to 100 scale (0 no effect, 100 complete control); for Pigweed, Palmer plant response rating: preemergence
Summary of the method: as §1

ragweed [19] = experiment: Test C postemergence; type: in vivo, Ambrosia artemisiifolia; conditions: 10 days
Summary of the method: as §1

kochia [20] = experiment: Test C preemergence; type: in vivo, Bassia scoparia; conditions: 0 to 100 scale (0 no effect, 100 complete control); for Kochia plant response rating: preemergence
Summary of the method: as §1

kochia [21] = experiment: Test C postemergence; type: in vivo, Bassia scoparia; conditions: 10 days
Summary of the method: as §1

wheat [22] = experiment: Test C postemergence; type: in vivo, Triticum aestivum; conditions: 10 days
Summary of the method: as §1

corn [23] = experiment: Test C preemergence; type: in vivo, Zea mays; conditions: 0 to 100 scale (0 no effect, 100 complete control); for Corn plant response rating: preemergence
Summary of the method: as §1

[24] = 125 g ai/ha, postemergence, 0 to 100 scale, 0 no effect, 100 complete control
[25] = Postemergence, 500 g ai/ha, visual 0 to 100 scale (0 no effect, 100 complete control)
[26] = Preemergence, 500 g ai/ha, visual rating after 10 days

COC[C@H]1CN(C(=O)c2cc(-n3cnc(C(C)(C)O)n3)ccc2C)c2cccc(Cl)c2O1 [Compound 276]
100: Foxtail, Green plant response rating (green foxtail [2]; 500 g ai/ha) | Foxtail, Green plant response rating (green foxtail [2]; Test C, 125 g ai/ha) | Plant response rating, Galium (galium; [24]) | Plant response rating, Galium (galium; [25]) | Plant response rating, Barnyardgrass (barnyardgrass [13]) | Soybean plant response rating (soybean [16]; 500 g ai/ha) | Soybean plant response rating (soybean [16]; Test C, 125 g ai/ha) | Plant response rating, Soybean (soybean [17]; [24]) | Pigweed, Palmer plant response rating (pigweed, palmer [18]; 500 g ai/ha) | Pigweed, Palmer plant response rating (pigweed, palmer [18]; Test C, 125 g ai/ha)
70: Plant response rating, Ducksalad (Flood) (ducksalad) | Plant response rating, Kochia (kochia [21]; [24])
80: Plant response rating, Sedge, Umbrella (Flood) (sedge, umbrella) | Plant response rating, Oat, Wild (oat, wild [7]; [24]) | Wheat plant response rating (wheat [8]; Test C, 125 g ai/ha) | Plant response rating, Ryegrass, Italian (ryegrass, Italian [9]; [24]) | Ragweed plant response rating (ragweed [10]; 500 g ai/ha) | Oat, Wild plant response rating (oat, wild [12]; Test C, 125 g ai/ha)
50: Plant response rating, Horseweed (horseweed; [24]) | Plant response rating, Corn (corn [11]; [24]) | Corn plant response rating (corn [23]; Test C, 125 g ai/ha)
60: Plant response rating, Blackgrass (blackgrass [3]; [24]) | Ragweed plant response rating (ragweed [10]; Test C, 125 g ai/ha) | Plant response rating, Pigweed, Palmer (pigweed, palmer [14]; [24]) | Plant response rating, Ragweed (ragweed [19]; [24]) | Plant response rating, Wheat (wheat [22]; [24])
35: Plant response rating, Barnyardgrass (Flood) (barnyardgrass [4])
30: Plant response rating, Barnyardgrass (barnyardgrass [1]; [24])
20: Plant response rating, Rice (Flood) (rice)
40: Plant response rating, Horseweed (horseweed; [25]) | Plant response rating, Foxtail, Green (green foxtail [15]; [24])
90: Plant response rating, Barnyardgrass (barnyardgrass [1]; [25]) | Plant response rating, Blackgrass (blackgrass [3]; [25]) | Plant response rating, Blackgrass (blackgrass [5]) | Blackgrass plant response rating (blackgrass [5]) | Ryegrass, Italian plant response rating (ryegrass, Italian [6]; 500 g ai/ha) | Ryegrass, Italian plant response rating (ryegrass, Italian [6]; Test C, 125 g ai/ha) | Wheat plant response rating (wheat [8]; 500 g ai/ha) | Plant response rating, Corn (corn [11]; [25]) | Oat, Wild plant response rating (oat, wild [12]; 500 g ai/ha) | Barnyardgrass plant response rating (barnyardgrass [13]) | Plant response rating, Foxtail, Green (green foxtail [15]; [25]) | Kochia plant response rating (kochia [20]; 500 g ai/ha) | Kochia plant response rating (kochia [20]; Test C, 125 g ai/ha) | Corn plant response rating (corn [23]; 500 g ai/ha)

COc1c(F)cc(-n2cnc(C(C)C)n2)cc1C(=O)N1C[C@H](C)Oc2c(Cl)cccc21 [Compound 177]
90: Plant response rating, Blackgrass (blackgrass [3]; [24]) | Plant response rating, Blackgrass (blackgrass [3]; [25]) | Plant response rating, Ryegrass, Italian (ryegrass, Italian [9]; [25]) | Plant response rating, Ragweed (ragweed [10]; [26]) | Ragweed plant response rating (ragweed [10]; Test C, 125 g ai/ha) | Plant response rating, Galium (galium; [24]) | Plant response rating, Oat, Wild (oat, wild [12]; [26]) | Plant response rating, Pigweed, Palmer (pigweed, palmer [14]; [24]) | Plant response rating, Foxtail, Green (green foxtail [15]; [24]) | Plant response rating, Foxtail, Green (green foxtail [15]; [25]) | Plant response rating, Soybean (soybean [16]; [26]) | Plant response rating, Kochia (kochia [21]; [24])
35: Plant response rating, Barnyardgrass (Flood) (barnyardgrass [4])
100: Plant response rating, Foxtail, Green (green foxtail [2]; [26]) | Foxtail, Green plant response rating (green foxtail [2]; Test C, 125 g ai/ha) | Plant response rating, Ryegrass, Italian (ryegrass, Italian [6]; [26]) | Ryegrass, Italian plant response rating (ryegrass, Italian [6]; Test C, 125 g ai/ha) | Plant response rating, Galium (galium; [25]) | Plant response rating, Barnyardgrass (barnyardgrass [13]) | Barnyardgrass plant response rating (barnyardgrass [13]) | Plant response rating, Pigweed, Palmer (pigweed, palmer [14]; [25]) | Plant response rating, Soybean (soybean [17]; [24]) | Plant response rating, Soybean (soybean [17]; [25]) | Plant response rating, Pigweed, Palmer (pigweed, palmer [18]; [26]) | Pigweed, Palmer plant response rating (pigweed, palmer [18]; Test C, 125 g ai/ha) | Plant response rating, Kochia (kochia [20]; [26]) | Plant response rating, Kochia (kochia [21]; [25])
60: Plant response rating, Blackgrass (blackgrass [5]) | Plant response rating, Oat, Wild (oat, wild [7]; [24]) | Plant response rating, Wheat (wheat [8]; [26]) | Plant response rating, Corn (corn [11]; [25]) | Soybean plant response rating (soybean [16]; Test C, 125 g ai/ha)
80: Plant response rating, Oat, Wild (oat, wild [7]; [25]) | Plant response rating, Horseweed (horseweed; [25]) | Plant response rating, Ryegrass, Italian (ryegrass, Italian [9]; [24]) | Oat, Wild plant response rating (oat, wild [12]; Test C, 125 g ai/ha) | Plant response rating, Ragweed (ragweed [19]; [24]) | Kochia plant response rating (kochia [20]; Test C, 125 g ai/ha)
0: Plant response rating, Rice (Flood) (rice)
95: Plant response rating, Sedge, Umbrella (Flood) (sedge, umbrella)
70: Plant response rating, Barnyardgrass (barnyardgrass [1]; [25]) | Plant response rating, Ragweed (ragweed [19]; [25])
40: Blackgrass plant response rating (blackgrass [5]) | Plant response rating, Corn (corn [11]; [24])
50: Plant response rating, Ducksalad (Flood) (ducksalad) | Plant response rating, Wheat (wheat [22]; [25])
30: Plant response rating, Barnyardgrass (barnyardgrass [1]; [24]) | Wheat plant response rating (wheat [8]; Test C, 125 g ai/ha) | Plant response rating, Horseweed (horseweed; [24]) | Plant response rating, Wheat (wheat [22]; [24]) | Plant response rating, Corn (corn [23]; [26]) | Corn plant response rating (corn [23]; Test C, 125 g ai/ha)
